# Assay results published in US9315490B2, “2,5-substituted pyrimidines” (Grünenthal GmbH, priority 2014, dated 2016).
# Target: T1, human PDE4B1 (Homo sapiens, UniProt Q07343)
# T1 construct: host or cells: Sf9 cells
# Experiment: TR-FRET assay using the LANCE Ultra cAMP kit to determine the activity of hPDE4B1
# Type: biochemical
# Conditions: test concentration 1 μM, read-out: Inhibition in % (inhibition of PDE4B)
# From the text: TR-FRET Assay Using the LANCE® Ultra cAMP Kit to Determine the Activity of hPDE4B1
# The effects of the compounds on the activity of the human PDE4B1 was quantified by measuring the production of 5′AMP from cAMP using a human recombinant enzyme expressed in Sf9 cells and the LANCE® Ultra cAMP kit, a TR-FRET detection method from PerkinElmer. The human PDE4B1 enzyme was purchased from SignalChem Lifesciences (Catalog# P92-31BG, Lot# H296-2).
# The test compound, reference compound or water (control) was mixed with the enzyme (0.96 U) in a reaction buffer containing 50 mM Tris-HCl, 50 mM MgCl2 and 5 mM DTT (pH 8.5). Thereafter, the reaction was initiated by addition of 500 nM cAMP (substrate) and the mixture was incubated for 30 minutes at room temperature. For control basal measurements, the enzyme was omitted from the reaction mixture. After 30 minutes, the reaction was stopped and diluted by a factor of 100 with the reaction buffer supplemented with 500 μM IBMX. The fluorescence donor (europium chelate-labeled cAMP) and the fluorescence acceptor (anti-cAMP antibody labeled with the ULight™ dye) were then added together with 500 μM IBMX to a 10 μl aliquot. After 60 minutes, the fluorescence transfer corresponding to the amount of residual cAMP was measured at λex=337 nm, λem=620 nm and λem=665 nm using a microplate reader (PHERAstar, BMG). The enzyme activity was determined by dividing the signal measured at 665 nm by that measured at 620 nm (ratio) multiplied by 10000. The results were expressed as percent inhibition of the control enzyme activity. IC50 values (IC50=concentration causing a half-maximal inhibition of control specific activity) were derived from dose response measurements with ten different concentrations (n=3; N=1-3).
# T1 sequence (Q07343 whole entry): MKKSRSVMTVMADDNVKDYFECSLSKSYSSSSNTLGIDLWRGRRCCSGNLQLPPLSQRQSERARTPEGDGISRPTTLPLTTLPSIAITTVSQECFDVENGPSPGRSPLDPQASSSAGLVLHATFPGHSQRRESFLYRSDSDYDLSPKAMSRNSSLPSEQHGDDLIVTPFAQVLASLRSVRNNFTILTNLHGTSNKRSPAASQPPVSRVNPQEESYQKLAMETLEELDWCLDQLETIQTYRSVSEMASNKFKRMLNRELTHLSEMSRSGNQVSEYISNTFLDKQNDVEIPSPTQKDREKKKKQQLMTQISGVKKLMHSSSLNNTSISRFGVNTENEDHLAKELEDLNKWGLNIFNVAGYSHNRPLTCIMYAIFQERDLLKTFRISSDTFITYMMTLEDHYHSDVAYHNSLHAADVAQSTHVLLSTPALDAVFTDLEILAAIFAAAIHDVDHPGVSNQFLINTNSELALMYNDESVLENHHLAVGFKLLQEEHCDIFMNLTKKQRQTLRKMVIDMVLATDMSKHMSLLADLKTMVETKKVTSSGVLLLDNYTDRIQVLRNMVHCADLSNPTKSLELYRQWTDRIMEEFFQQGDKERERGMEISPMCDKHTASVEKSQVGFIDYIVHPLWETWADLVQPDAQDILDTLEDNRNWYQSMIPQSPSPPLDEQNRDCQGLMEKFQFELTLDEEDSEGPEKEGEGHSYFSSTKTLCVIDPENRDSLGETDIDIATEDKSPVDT
row,SMILES,inhibition at 1 µM
1,"CCc1ccnc(-c2cnc(-n3cc([S+](C)[O-])c4ccc(C(=O)N5CCCC5)cc43)nc2)c1 (stereo not shown) [Example 277, (1-(5-(4-Ethylpyridin-2-yl)pyrimidin-2-yl)-3-(methylsulfinyl)-1H-indol-6-yl)(pyrrolidin-1-yl)methanone]",93%
2,"CCc1ccnc(-c2cnc(-n3cc([S+](C)[O-])c4ccc(C(=O)N(C)C)cc43)nc2)c1 (stereo not shown) [Example 278, 1-(5-(4-Ethylpyridin-2-yl)pyrimidin-2-yl)-N,N-dimethyl-3-(methylsulfinyl)-1H-indole-6-carboxamide]",92%
3,"COc1ccc(F)c(-c2cnc(-n3cc([S+](C)[O-])c4ccc(C(=O)N(C)CC(N)=O)cc43)nc2)c1 (stereo not shown) [Example 279, N-(2-Amino-2-oxoethyl)-1-(5-(2-fluoro-5-methoxyphenyl)pyrimidin-2-yl)-N-methyl-3-(methylsulfinyl)-1H-indole-6-carboxamide]",97%
4,"CCc1ccc(F)c(-c2cnc(-n3cc([S+](C)[O-])c4ccc(C(=O)N(C)CC(N)=O)cc43)nc2)c1 (stereo not shown) [Example 280, N-(2-Amino-2-oxoethyl)-1-(5-(5-ethyl-2-fluorophenyl)pyrimidin-2-yl)-N-methyl-3-(methylsulfinyl)-1H-indole-6-carboxamide]",93%
5,"Cc1ccc(F)c(-c2cnc(-n3cc([S+](C)[O-])c4ccc(C(=O)N(C)CC(N)=O)cc43)nc2)c1 (stereo not shown) [Example 281, N-(2-Amino-2-oxoethyl)-1-(5-(2-fluoro-5-methylphenyl)pyrimidin-2-yl)-N-methyl-3-(methylsulfinyl)-1H-indole-6-carboxamide]",97%
6,"Cc1ccnc(-c2cnc(-n3cc([S+](C)[O-])c4ccc(C(=O)N(C)CC(N)=O)cc43)nc2)c1 (stereo not shown) [Example 282, N-(2-Amino-2-oxoethyl)-N-methyl-1-(5-(4-methylpyridin-2-yl)pyrimidin-2-yl)-3-(methylsulfinyl)-1H-indole-6-carboxamide]",90%
7,"COc1ccnc(-c2cnc(-n3cc([S+](C)[O-])c4ccc(C(=O)N(C)CC(N)=O)cc43)nc2)c1 (stereo not shown) [Example 283, N-(2-Amino-2-oxoethyl)-1-(5-(4-methoxypyridin-2-yl)pyrimidin-2-yl)-N-methyl-3-(methylsulfinyl)-1H-indole-6-carboxamide]",92%
8,"CN(CC(N)=O)C(=O)c1ccc2c([S+](C)[O-])cn(-c3ncc(-c4cc(N(C)C)ccn4)cn3)c2c1 (stereo not shown) [Example 284, N-(2-Amino-2-oxoethyl)-1-(5-(4-(dimethylamino)pyridin-2-yl)pyrimidin-2-yl)-N-methyl-3-(methylsulfinyl)-1H-indole-6-carboxamide]",104%
9,"CCc1ccnc(-c2cnc(-n3cc([S+](C)[O-])c4ccc(C(=O)N(C)CC(N)=O)cc43)nc2)c1 (stereo not shown) [Example 285, N-(2-Amino-2-oxoethyl)-1-(5-(4-ethylpyridin-2-yl)pyrimidin-2-yl)-N-methyl-3-(methylsulfinyl)-1H-indole-6-carboxamide]",91%
10,"CS(=N)(=O)c1cn(-c2ncc(-c3ccccc3F)cn2)c2cc(C(=O)N3CCOCC3)ccc12 (stereo not shown) [Example 287, (1-(5-(2-Fluorophenyl)pyrimidin-2-yl)-3-(S-methylsulfonimidoyl)-1H-indol-6-yl)(morpholino)methanone]",93%
11,"Cc1ccnc(-c2cnc(-n3cc(S(C)(=N)=O)c4ccc(C(=O)N5CCOCC5)cc43)nc2)c1 (stereo not shown) [Example 288, (1-(5-(4-Methylpyridin-2-yl)pyrimidin-2-yl)-3-(S-methylsulfonimidoyl)-1H-indol-6-yl)(morpholino)methanone]",92%
12,"C[S+]([O-])c1cn(-c2ncc(-c3cc(C(C)(C)O)ccn3)cn2)c2cc(C(=O)N3CCOCC3)ccc12 (stereo not shown) [Example 289, (1-(5-(4-(2-Hydroxypropan-2-yl)pyridin-2-yl)pyrimidin-2-yl)-3-(methylsulfinyl)-1H-indol-6-yl)(morpholino)methanone]",93%
13,"CC(O)c1ccnc(-c2cnc(-n3cc([S+](C)[O-])c4ccc(C(=O)N5CCOCC5)cc43)nc2)c1 (stereo not shown) [Example 291, (1-(5-(4-(1-Hydroxyethyl)pyridin-2-yl)pyrimidin-2-yl)-3-(methylsulfinyl)-1H-indol-6-yl)(morpholino)methanone]",90%
14,"C[S+]([O-])c1cn(-c2ncc(-c3cc(C(C)(C)O)ccc3F)cn2)c2cc(C(=O)N3CCOCC3)ccc12 (stereo not shown) [Example 293, (1-(5-(2-Fluoro-5-(2-hydroxypropan-2-yl)phenyl)pyrimidin-2-yl)-3-(methylsulfinyl)-1H-indol-6-yl)(morpholino)methanone]",94%
15,"C[S+]([O-])c1cn(-c2ncc(-c3cc(NCC4CC4)ccn3)cn2)c2cc(C(=O)N3CCOCC3)ccc12 (stereo not shown) [Example 296, (1-(5-(4-((Cyclopropylmethyl)amino)pyridin-2-yl)pyrimidin-2-yl)-3-(methylsulfinyl)-1H-indol-6-yl)(morpholino)methanone]",97%
16,"C[S+]([O-])c1cn(-c2ncc(-c3cc(N4CCCC4)ccn3)cn2)c2cc(C(=O)N3CCOCC3)ccc12 (stereo not shown) [Example 297, (3-(Methylsulfinyl)-1-(5-(4-(pyrrolidin-1-yl)pyridin-2-yl)pyrimidin-2-yl)-1H-indol-6-yl)(morpholino)methanone]",93%
17,"CCNc1ccnc(-c2cnc(-n3cc([S+](C)[O-])c4ccc(C(=O)N5CCOCC5)cc43)nc2)c1 (stereo not shown) [Example 298, (1-(5-(4-(Ethylamino)pyridin-2-yl)pyrimidin-2-yl)-3-(methylsulfinyl)-1H-indol-6-yl)(morpholino)methanone]",119%

# Same assay, conditions: test concentration 10 μM (marked in cell), read-out: Inhibition in % (inhibition of PDE4B)
row,SMILES,inhibition at 10 µM
1,"CN(CC(N)=O)C(=O)c1ccc2c([S+](C)[O-])cn(-c3ncc(-c4cc(N)ccn4)cn3)c2c1 (stereo not shown) [Example 286, N-(2-Amino-2-oxoethyl)-1-(5-(4-aminopyridin-2-yl)pyrimidin-2-yl)-N-methyl-3-(methylsulfinyl)-1H-indole-6-carboxamide]",101%
2,"C[S+]([O-])c1cn(-c2ncc(-c3cc(NCC4CC4)ccc3F)cn2)c2cc(C(=O)N3CCOCC3)ccc12 (stereo not shown) [Example 290, (1-(5-(5-((Cyclopropylmethyl)amino)-2-fluorophenyl)pyrimidin-2-yl)-3-(methylsulfinyl)-1H-indol-6-yl)(morpholino)methanone]",97%
3,"CCNc1ccc(F)c(-c2cnc(-n3cc([S+](C)[O-])c4ccc(C(=O)N5CCOCC5)cc43)nc2)c1 (stereo not shown) [Example 292, (1-(5-(5-(Ethylamino)-2-fluorophenyl)pyrimidin-2-yl)-3-(methylsulfinyl)-1H-indol-6-yl)(morpholino)methanone]",91%
4,"C[S+]([O-])c1cn(-c2ncc(-c3cc(C4(O)CC4)ccc3F)cn2)c2cc(C(=O)N3CCOCC3)ccc12 (stereo not shown) [Example 294, (1-(5-(2-Fluoro-5-(1-hydroxycyclopropyl)phenyl)pyrimidin-2-yl)-3-(methylsulfinyl)-1H-indol-6-yl)(morpholino)methanone]",98%
5,"C[S+]([O-])c1cn(-c2ncc(-c3cc(C4(O)CC4)ccn3)cn2)c2cc(C(=O)N3CCOCC3)ccc12 (stereo not shown) [Example 295, (1-(5-(4-(1-Hydroxycyclopropyl)pyridin-2-yl)pyrimidin-2-yl)-3-(methylsulfinyl)-1H-indol-6-yl)(morpholino)methanone]",98%
